{"source": "patent US20220265817A1", "about": "“THERAPEUTIC COMPOSITIONS AND METHODS FOR TREATING HEPATITIS B” (priority 2017, published 2022)", "experiment_in_all_cases": "microbe, parasite or virus in culture", "format_in_all_cases": "cell-based", "conditions_in_all_cases": "Hepatitis B virus, Hepatocyte", "key": {"[1]": {"system": "D type HBV in primary human hepatocytes", "procedure": "(§1) The mouse liver perfusion was applied to isolate PHHs. The isolated hepatocytes were further purified by Percoll. The cells were resuspended with culture media and seeded into the 96-well plates (6×10^4 cell/well) or 48-well plates (1.2×10^5 cell/well). The PHHs were infected with a D type HBV one day post seeding (day 1).\n(§2) On day 2, the test compounds were diluted and added into the cell culture plates. The culture media containing the compounds were refreshed every other day. The cell culture supernatants were collected on day 8 for the HBV DNA and antigen determinations.\n(§3) The compounds were tested at 7 concentrations, 3-fold dilution, in triplicate.\n(§4) Two compounds were tested at 5×5 matrix, in triplicate plates.\nDNA in the culture supernatants harvested on days 8 were isolated with QIAamp 96 DNA Blood Kit (Qiagen-51161). For each sample, 100 μl of the culture supernatants was used to extract DNA. The DNA was eluted with 100 μl, 150 μl or 180 μl of AE. HBV DNA in the culture supernatants was quantified by qPCR. The combination effect was analyzed by the MacSynergy software. The primers are described below."}, "[2]": {"system": "D type HBV in primary human hepatocytes (HBsAg)", "procedure": "as §1, §2, §3, §4\n(§5) HBsAg/HBeAg in the culture supernatants harvested on days 8 were measured by the HBsAg/HBeAg ELISA kit (Autobio) according to the manual. The samples were diluted with PBS to get the signal in the range of the standard curve. The inhibition rates were calculated with the formula below. The combination effect was analyzed by the MacSynergy software.\n% Inh. HBsAg=[1-HBsAg quantity of sample/HBV quantity of DMSO control]×100."}, "[3]": {"system": "D type HBV in primary human hepatocytes (HBeAg)", "procedure": "as §1, §2, §3, §4, §5\n% Inh. HBeAg=[1-HBeAg quantity of sample/HBV quantity of DMSO control]×100."}}, "note": "Like-named read-outs stand apart in the source and are kept apart here.", "data": [{"smiles": "CNC(=O)N[C@H]1CCOc2c(C(=O)Nc3ccc(F)c(F)c3)ccc(F)c21", "note": "[Compound 23]", "values": [{"measurement": "inhibition at 0.02469 µM", "setting": "[1]; read-out: AVERAGE % […] DNA, compound 23 24.69 nM alone (TDF study)", "value": -15.3, "unit": "%"}, {"measurement": "inhibition at 0.024691 µM", "setting": "[1]; read-out: AVERAGE % […] DNA, compound 23 24.691 nM alone (TAF study)", "value": -4.57, "unit": "%"}, {"measurement": "inhibition at 0.07407 µM", "setting": "[1]; read-out: AVERAGE % […] DNA, compound 23 74.07 nM alone (TDF study)", "value": -36.6, "unit": "%"}, {"measurement": "inhibition at 0.074074 µM", "setting": "[1]; read-out: AVERAGE % […] DNA, compound 23 74.074 nM alone (TAF study)", "value": -2.49, "unit": "%"}, {"measurement": "inhibition at 0.22222 µM", "setting": "[1]; read-out: AVERAGE % […] DNA, compound 23 222.22 nM alone (TAF study)", "value": 11.1, "unit": "%"}, {"measurement": "inhibition at 0.22222 µM", "setting": "[1]; read-out: AVERAGE % […] DNA, compound 23 222.22 nM alone (TDF study)", "value": 0.78, "unit": "%"}, {"measurement": "inhibition at 0.66667 µM", "setting": "[1]; read-out: AVERAGE % […] DNA, compound 23 666.67 nM alone (TAF study)", "value": 30.5, "unit": "%"}, {"measurement": "inhibition at 0.66667 µM", "setting": "[1]; read-out: AVERAGE % […] DNA, compound 23 666.67 nM alone (TDF study)", "value": 30.4, "unit": "%"}, {"measurement": "inhibition at 2 µM", "setting": "[1]; read-out: AVERAGE % […] DNA, compound 23 2000 nM alone (TAF study)", "value": 58.1, "unit": "%"}, {"measurement": "inhibition at 2 µM", "setting": "[1]; read-out: AVERAGE % […] DNA, compound 23 2000.00 nM alone (TDF study)", "value": 70, "unit": "%"}, {"measurement": "EC50", "setting": "[1]; HBV DNA, PHH, determined in an earlier separate experiment, read-out: Inhibitor B EC50", "value": 0.23, "unit": "µM"}, {"measurement": "inhibition at 0.02469 µM", "setting": "[2]; read-out: AVERAGE % INHIBITION HBsAg, compound 23 24.69 nM alone (TDF study)", "value": -13.9, "unit": "%"}, {"measurement": "inhibition at 0.024691 µM", "setting": "[2]; read-out: AVERAGE % INHIBITION HBsAg, compound 23 24.691 nM alone (TAF study)", "value": 0.77, "unit": "%"}, {"measurement": "inhibition at 0.07407 µM", "setting": "[2]; read-out: AVERAGE % INHIBITION HBsAg, compound 23 74.07 nM alone (TDF study)", "value": -10.9, "unit": "%"}, {"measurement": "inhibition at 0.074074 µM", "setting": "[2]; read-out: AVERAGE % INHIBITION HBsAg, compound 23 74.074 nM alone (TAF study)", "value": -5.27, "unit": "%"}, {"measurement": "inhibition at 0.22222 µM", "setting": "[2]; read-out: AVERAGE % INHIBITION HBsAg, compound 23 222.22 nM alone (TAF study)", "value": 4.83, "unit": "%"}, {"measurement": "inhibition at 0.22222 µM", "setting": "[2]; read-out: AVERAGE % INHIBITION HBsAg, compound 23 222.22 nM alone (TDF study)", "value": -11.6, "unit": "%"}, {"measurement": "inhibition at 0.66667 µM", "setting": "[2]; read-out: AVERAGE % INHIBITION HBsAg, compound 23 666.67 nM alone (TAF study)", "value": 1.95, "unit": "%"}, {"measurement": "inhibition at 0.66667 µM", "setting": "[2]; read-out: AVERAGE % INHIBITION HBsAg, compound 23 666.67 nM alone (TDF study)", "value": -4.45, "unit": "%"}, {"measurement": "inhibition at 2 µM", "setting": "[2]; read-out: AVERAGE % INHIBITION HBsAg, compound 23 2000.00 nM alone (TDF study)", "value": 0.48, "unit": "%"}, {"measurement": "EC50", "setting": "[2]; read-out: Inhibitor B EC50", "value": 4.36, "unit": "µM"}, {"measurement": "inhibition at 0.02469 µM", "setting": "[3]; read-out: AVERAGE % INHIBITION HBeAg, compound 23 24.69 nM alone", "value": -8.82, "unit": "%"}, {"measurement": "inhibition at 0.07407 µM", "setting": "[3]; read-out: AVERAGE % INHIBITION HBeAg, compound 23 74.07 nM alone", "value": -6.36, "unit": "%"}, {"measurement": "inhibition at 0.22222 µM", "setting": "[3]; read-out: AVERAGE % INHIBITION HBeAg, compound 23 222.22 nM alone", "value": -12.7, "unit": "%"}, {"measurement": "inhibition at 0.66667 µM", "setting": "[3]; read-out: AVERAGE % INHIBITION HBeAg, compound 23 666.67 nM alone", "value": -7.94, "unit": "%"}, {"measurement": "inhibition at 2 µM", "setting": "[3]; read-out: AVERAGE % INHIBITION HBeAg, compound 23 2000.00 nM alone", "value": -1.09, "unit": "%"}, {"measurement": "EC50", "setting": "[3]; HBeAg, PHH, determined in an earlier separate experiment, read-out: Inhibitor B EC50", "value": 4.53, "unit": "µM"}]}]}
